Results reported in patent US20110269783A1, “NOVEL 2,3-DIAMINO-QUINAZOLINONE DERIVATIVES AND THEIR MEDICAL USE” (NEUROSEARCH A/S, priority 2008, published 2011).

Target: T1, human Kv7.2+3 (Homo sapiens, UniProt O43525+O43526)
T1 construct: expressed in transfected cells; host or cells: HEK293
Assay: FLIPR-based thallium influx characterization of Kv7.2+3 modulators
Format: cell-based
Settings: for EC50: HEK293 cells over-expressing human Kv7.2+3, Tl+ influx, BTC-AM, FLIPR, 50% of channel activity compared to retigabine control responses; for Emax: maximal response relative to the reference (retigabine) response, HEK293 human Kv7.2+3, Tl+ influx FLIPR, read-out: Efficacy
Protocol: This experiment determines the ability of a test compound to modulate the activity of Kv7.2+3 channels heterologously expressed in human HEK293 cells. The ability is determined relative to retigabine. The activity is determined using a standard thallium (I) sensitive assay, e.g. using a fluorometric method in a Fluorescent Image Plate Reader (FLIPR) as described below in more detail.
Full concentration/response curves are generated and EC50 values are calculated based on max values. EC50 values (Effective Concentration) represent the concentration of the test substance, at which 50% of the channel activity is obtained when compared to retigabine control responses. Maximal response determined relative to the reference (retigabine) response is calculated.
Human HEK293 cells over-expressing human Kv7.2+3 are grown in culture medium (DMEM supplemented with 10% foetal bovine serum), in polystyrene culture flasks ([…]) in a humidified atmosphere of 5% CO2 in air, at 37° C. Cell confluence should be 80-90% on day of plating. Cells are rinsed with 4 ml of PBS (phosphate buffered saline) and incubated 2 min with 1 ml of Trypsin-EDTA. After addition of 25 ml of culture medium cells are re-suspended by trituration with a 25 ml pipette.
The cells are seeded at a density of ˜3×10^6 cells/ml (25 μl/well) in black-walled, clear bottom, 384-well plates pre-treated with 0.01 g/l poly-D-lysin (20 μl/well for ≧30 min). Plated cells were allowed to proliferate for 24 h before loading with dye.
BTC-AM ([…], Invitrogen) is added 25.5 μl DMSO. The BTC-AM stock solution (2 mM) is diluted to a final concentration of 2 μM in Cl^− free assay buffer (in mM: 140 Natgluconate, 2.5 K^+-gluconate, 6 Ca2^+-gluconate, 1 Mg^2+ gluconate, 5 glucose, 10 HEPES, pH 7.3) containing 2 μM ouabain, 2 mM amaranth and 1 mM tartrazine.
The culture medium is aspirated from the wells, the cells are washed thrice in Cl^− free assay buffer, and 25 μl of the BTC-AM loading solution is added to each well. The cells are incubated at 37° C. for 60 min.
After the loading period, the Tl^+-sensitive BTC fluorescence signal is measured over time using a FLIPR.
• Temperature: Room temp. • First addition: 12 μl test or control compound after 15 sec at a rate of 30 μl/sec and starting height of 20 μl • Second addition: 12 μl stimulus buffer (Cl^− free assay buffer supplemented with 1 mM Tl2SO4, 5 mM K2SO4 as well as the quenchers amaranth (2 mM) and tartrazine (1 mM)) is added after an additional 3 minutes at a rate of 30 μl/sec and starting height of 30 μl • Reading intervals: First sequence—3 sec×5, 2 sec×24 and 5 sec×25 • Second sequence—1 sec×5, 2 sec×24 and 5 sec×36
Addition plates (compound plate and stimulus plate) are placed in positions 2 and 3, respectively. Cell plates are placed in position 1 and run using the “KCNQ (two additions)” program. FLIPR will then take the appropriate measurements in accordance with the interval settings above. Fluorescence obtained after stimulation is corrected for the mean basal fluorescence (in Cl^− free assay buffer).
Full concentration/response curves are generated and EC50 values (“Effective Concentration”; the concentration at which 50% of the channel activity is obtained when compared to retigabine control responses) are calculated based on peak values. Maximal response determined relative to the reference (retigabine) response is calculated.

SMILES | EC50 | Emax
CC(C)N(C)c1nc2cc(F)cc(F)c2c(=O)n1NC(=O)[C@@H]1C[C@@H]1c1ccc(Cl)cc1 (relative stereo) [Compound 2.2, cis-2-(4-Chloro-phenyl)-cyclopropanecarboxylic acid [5,7-difluoro-2-(isopropyl-methyl-amino)-4-oxo-4H-quinazolin-3-yl]-amide] | 450 nM | 116%
O=C(CCc1ccccc1)Nn1c(N2CCCC2)nc2ccccc2c1=O [Compound 1.6, N-(4-Oxo-2-pyrrolidin-1-yl-4H-quinazolin-3-yl)-3-phenyl-propionamide] | 660 nM | 96%
O=C(CSc1ccc(F)cc1)Nn1c(N2CCCC2)nc2ccccc2c1=O [Compound 1.11, 2-(4-Fluoro-phenylsulfanyl)-N-(4-oxo-2-pyrrolidin-1-yl-4H-quinazolin-3-yl)-acetamide] | 2200 nM | 106%
C[C@@H](CC(=O)Nn1c(N2CCCC2)nc2cc(F)cc(F)c2c1=O)c1ccccc1 [Compound 1.16, (S)-N-(5,7-Difluoro-4-oxo-2-pyrrolidin-1-yl-4H-quina-zolin-3-yl)-3-phenyl-butyr-amide] | 2.8 nM | 68%
CC(CC(=O)Nn1c(N2CCCC2)nc2ccccc2c1=O)c1ccc(Cl)cc1 (centres unmarked) [Compound 1.17, 3-(4-Chloro-phenyl)-N-(4-oxo-2-pyrrolidin-1-yl-4H-quinazolin-3-yl)-butyramide] | 100 nM | 85%
O=C(CCc1cccc(F)c1)Nn1c(N2CCCC2)nc2cc(F)ccc2c1=O [Compound 1.1, N-(7-Fluoro-4-oxo-2-pyrrolidin-1-yl-4H-quinazolin-3-yl)-3-(3-fluoro-phenvl)-propion-amide] | 260 nM | 154%
O=C(CCc1cccc(F)c1)Nn1c(N2CCCC2)nc2ccccc2c1=O [Compound 1.5, 3-(3-Fluoro-phenyl)-N-(4-oxo-2-pyrrolidin-1-yl-4H-quinazolin-3-yl)-propion-amide] | 410 nM | 148%
O=C(Nn1c(N2CCCC2)nc2cc(F)cc(F)c2c1=O)[C@@H]1C[C@@H]1c1ccc(Cl)cc1 (relative stereo) [Compound 2.3, cis-2-(4-Chloro-phenyl)-cyclopropanecarboxylic acid (5,7-difluoro-4-oxo-2-pyrro-lidin-1-yl-4H-quinazolin-3-yl)-amide] | 830 nM | 109%
CN(Cc1ccccc1)c1nc2ccccc2c(=O)n1NC(=O)CCc1cc(F)cc(F)c1 [Compound 1.4, N-[2-(Benzyl-methyl-amino)-4-oxo-4H-quinazolin-3-yl]-3-(3,5-difluoro-phenyl)-propionamide] | 3900 nM | 40%
O=C(Nn1c(N2CCCC2)nc2c(F)cccc2c1=O)[C@@H]1C[C@@H]1c1ccc(Cl)cc1 (relative stereo) [Compound 2.7, cis-2-(4-Chloro-phenyl)-cyclopropanecarboxylic acid (8-fluoro-4-oxo-2-pyrrolidin-1-yl-4H-quinazolin-3-yl)-amide] | 270 nM | 101%
CC(C)(C)c1ccc(SCC(=O)Nn2c(N3CCCC3)nc3ccccc3c2=O)cc1 [Compound 1.13, 2-(4-tert-Butyl-phenyl-sulfanyl)-N-(4-oxo-2-pyrro-lidin-1-yl-4H-quinazolin-3-yl)-acetamide] | 2100 nM | 41%
O=C(CCc1cccc(F)c1)Nn1c(N2CCCC2)nc2cc(F)cc(F)c2c1=O [Compound 1.12, N-(5,7-Difluoro-4-oxo-2-pyrrolidin-1-yl-4H-quina-zolin-3-yl)-3-(3-fluoro-phenyl)-propionamide] | 32 nM | 122%
CN(Cc1ccccc1)c1nc2ccccc2c(=O)n1NC(=O)CCc1cccc(F)c1 [Compound 1.3, N-[2-(Benzyl-methyl-amino)-4-oxo-4H-quinazolin-3-yl]-3-(3-fluoro-phenyl)-propion-amide] | 1600 nM | 118%
CN(C)c1nc2cc(F)ccc2c(=O)n1NC(=O)[C@@H]1C[C@@H]1c1ccc(Cl)cc1 (relative stereo) [Compound 2.1, cis-2-(4-Chloro-phenyl)-cyclopropanecarboxylic acid (2-dimethylamino-7-fluoro-4-oxo-4H-quinazolin-3-yl)-amide] | 1400 nM | 118%
O=C(CCc1cccc(F)c1)Nn1c(N2CCCC2)nc2cccc(F)c2c1=O [Compound 1.10, N-(5-Fluoro-4-oxo-2-pyrro-lidin-1-yl-4H-quinazolin-3-yl)-3-(3-fluoro-phenyl)-propionamide] | 340 nM | 100%
CN(C)c1nc2cc(F)ccc2c(=O)n1NC(=O)CCc1cccc(F)c1 [Compound 1.7, N-(2-Dimethylamino-7-fluoro-4-oxo-4H-quinazolin-3-yl)-3-(3-fluoro-phenyl)-propionamide] | 2500 nM | 112%
CCN(C)c1nc2cc(F)ccc2c(=O)n1NC(=O)[C@@H]1C[C@@H]1c1ccc(Cl)cc1 (relative stereo) [Compound 2.4, cis-2-(4-Chloro-phenyl)-cyclopropanecarboxylic acid [2-(ethyl-methyl-amino)-7-fluoro-4-oxo-4H-quinazolin-3-yl]-amide] | 940 nM | 114%
CC(C)N(C)c1nc2cc(F)ccc2c(=O)n1NC(=O)[C@@H]1C[C@@H]1c1ccc(Cl)cc1 (relative stereo) [Compound 2.5, cis-2-(4-Chloro-phenyl)-cyclopropanecarboxylic acid [7-fluoro-2-(isopropyl-methyl-amino)-4-oxo-4H-quinazolin-3-yl]-amide] | 930 nM | 114%
CC(C)N(C)c1nc2cc(F)cc(F)c2c(=O)n1NC(=O)CCc1cccc(F)c1 [Compound 1.14, N-[5,7-Difluoro-2-(isopropyl-methyl-amino)-4-oxo-4H-quinazolin-3-yl]-3-(3-fluoro-phenyl)-propionamide] | 450 nM | 109%
O=C(CCc1cc(F)cc(F)c1)Nn1c(N2CCCC2)nc2cc(F)cc(F)c2c1=O [Compound 1.15, N-(5,7-Difluoro-4-oxo-2-pyrrolidin-1-yl-4H-quina-zolin-3-yl)-3-(3,5-difluoro-phenyl)-propionamide] | 18 nM | 112%
O=C(COc1ccccc1)Nn1c(N2CCCC2)nc2ccccc2c1=O [Compound 1.9, N-(4-Oxo-2-pyrrolidin-1-yl-4H-quinazolin-3-yl)-2-phenoxy-acetamide] | 12000 nM | 75%
COCCN(C)c1nc2ccccc2c(=O)n1NC(=O)CCc1cccc(F)c1 [Compound 1.2, 3-(3-Fluoro-phenyl)-N-{2-[(2-methoxy-ethyl)-methyl-amino]-4-oxo-4H-quinazolin-3-yl}-propionamide] | 9500 nM | 130%
CC(CC(=O)Nn1c(N2CCCC2)nc2ccccc2c1=O)c1cccc(F)c1 (centres unmarked) [Compound 1.18, 3-(3-Fluoro-phenyl)-N-(4-oxo-2-pyrrolidin-1-yl-4H-quinazolin-3-yl)-butyramide] | 15 nM | 98%
CCN(C)c1nc2cc(F)cc(F)c2c(=O)n1NC(=O)[C@@H]1C[C@@H]1c1ccc(Cl)cc1 (relative stereo) [Compound 2.6, cis-2-(4-Chloro-phenyl)-cyclopropanecarboxylic acid [2-(ethyl-methyl-amino)-5,7-difluoro-4-oxo-4H-quina-zolin-3-yl]-amide] | 500 nM | 110%
O=C(CSc1ccccc1)Nn1c(N2CCCC2)nc2ccccc2c1=O [Compound 1.8, N-(4-Oxo-2-pyrrolidin-1-yl-4H-quinazolin-3-yl)-2-phenylsulfanyl-acetamide] | 3300 nM | 103%
